Results: patent US7897401B2, “Control of apoptosis by controlling the propensity of ceramide channel formation” (University of Maryland, College Park, priority 2005, dated 2011)

Assays:
[1] = tested on: ceramide channel in planar phospholipid membrane; assay: Electrophysiological recordings on planar phospholipid membranes; type: biochemical
Excerpt: Planar phospholipid membranes were produced by the monolayer method (Montal, M. et al. (1972) “FORMATION OF BIMOLECULAR MEMBRANES FROM LIPID MONOLAYERs AND A STUDY OF THEIR ELECTRICAL PROPERTIES,” Proc. Natl. Acad. Sci. USA 69:3561-3566) as modified by Colombini, M. (1987) (“CHARACTERIZATION OF CHANNELS ISOLATED FROM PLANT MITOCHONDRIA,” Methods Enzymol. 148:465-475), across a 100-μm-diameter hole in a Saran partition. Monolayers were produced using a solution of 0.5% w/v asolectin, 0.5% w/v DiPhyPC, 0.1% w/v cholesterol in hexane. This technique produces solvent-free phospholipid membranes whose lipid composition (focusing on the polar head-groups) is similar to that found in the mitochondrial outer membrane. It differs from the natural membrane in lacking proteins.
The aqueous solutions contained 1 mM MgCl2, and 5 mM Pipes pH 6.8 with KCl varying from 0.10 M to 1.0 M. The KCl concentration on one side of the membrane, referred to as the “trans” side, was always 0.10 M, whereas the other side (the “cis” side) was adjusted as needed. The transmembrane voltage was electronically clamped and the current through the membrane was recorded. The voltage values indicated are the voltage differences across the membrane cis side minus trans side.
C2-ceramide was stirred into the aqueous solution on each side of the membrane from a solution in DMSO, generally 0.5 mg/ml. Single or multiple additions, typically […] each, yielding a final concentration of 2 μg/ml, were made to achieve a desired level of conductance. Sphingosine additions of 5 μl were made from a solution in DMSO (4 mg/mL) yielding a final concentration of 4 μg/mL.
The observation that anti-apoptotic Bcl-2 family proteins inhibit ceramide channel formation in isolated yeast and rat liver mitochondria correlates with previous reports showing inhibition of ceramide-induced apoptosis in whole cells by these proteins. Thus the results directly tie ceramide-induced mitochondrial-mediated apoptosis with the Bcl-2 family of proteins known to regulate these events. To address whether the antiapoptotic proteins act directly on ceramide channels or work by an indirect action, their affects on ceramide channels in solvent-free planar phospholipid membranes was tested. This is a defined system free of other proteins. When C16-ceramide is added to the aqueous solution bathing one side of a planar phospholipid membrane, it results in discontinuous increases in conductance under voltage-clamp conditions, the defining characteristic of channel formation in membranes. These conductance increments are the enlargement of one ceramide channel rather than the formation of multiple ceramide channels in parallel (Siskind, L. J. et al. (2003) “ENLARGEMENT AND CONTRACTURE OF C2-CERAMIDE CHANNELS,” Biophys. J. 85:1560-1575). […]

[2] = Protein (cytochrome c) release and metabolism of sphingosine in isolated mitochondria; type: biochemical; details: compound alone, maximum
[3] = published value; cited from earlier work
[4] = Ability of sphingolipids to form channels in membranes; type: biochemical
Excerpt: The present invention establishes that sphingosine is capable of directly disassembling ceramide channels, thus proving the existence of this novel anti-apoptotic regulatory step. The ability of sphingosine, sphingosine-1-phosphate ([…]) and ceramide-1-phosphate the ability to form channels was investigated.

[5] = tested on: ceramide channels in the mitochondrial outer membrane (MOM); assay: Adenylate kinase release assay in isolated rat liver mitochondria; type: biochemical
Protocol: The preparation yielded a mitochondrial suspension containing 10 mg of protein per mL. […] The mitochondria were then pelleted at 14,000 g for 5 min at 4° C. and the supernatant was kept on ice until assayed. […] The enzymes were added to the rest of the reaction mixture 1 min before the addition of the mitochondrial supernatant to allow a trace of ATP to be consumed. The activity of adenylate kinase was detected as an increase in absorbance at 340 nm. Since the activity of the kinase decays with time, even on ice, experiments were performed in sets and the activity of the first supernatant was assayed again at the end of the set. The values were fitted to a first order decay and all values within the set were corrected for the decay of the activity, based on the time delay before assay.
To determine the effect of sphingosine pretreatment on ceramide permeabilization of the mitochondrial outer membrane, mitochondria were incubated at room temperature in the presence of varying concentrations of sphingosine for […] before addition of ceramide and incubation for 10 min. Untreated mitochondria and mitochondria hypotonically lysed (20 μl into 1.2 ml water) served as negative and positive controls, respectively.
Experiments with C16-ceramide were performed in a similar way except as follows. The mitochondria were suspended in the above medium except that the 1 mM Tris buffer was replaced by 5 mM HEPES. To 1.0 mL of this medium at room temperature (RT) was added 17 μL of mitochondrial suspension that had been kept on ice at a concentration of 4 mg/mL. The final mitochondrial protein concentration during the experiment was 80 μg/mL. In the case of shocked mitochondria, the 1.0 mL of medium was replaced by water. Sphingosine was added, where appropriate, from a 0.25 mg/mL solution in DMSO. Typically 4-7 incubations were run in parallel. All samples were incubated for 5 min at RT. Then some samples received 0.4 mL of fatty acid depleted bovine serum albumin (BSA), 25 mg/mL, followed immediately by 20 μL of C16-ceramide dissolved in isopropanol at 2 mg/mL. After a 10-min incubation at RT, 10 μL of 4 mM PMSF was added followed by centrifugation. In these experiments 0.3 mL of mitochondrial supernatant was added to the adenylate kinase reaction mixture.

[6] = observed in isolated mitochondria and liposome permeability assay

CCCCCCCCCCCCC/C=C/[C@@H](O)[C@@H](N)CO [sphingosine]
time at which conductance reached a minimum ([1]; C2-ceramide 3 μg/mL, sphingosine 8 μg/mL at t=0, KCl gradient): 20 min
time over which membrane conductance decreased after addition ([1]; C2-ceramide channel (9 μg/mL), sphingosine 4 μg/mL cis side, 10 mV): 15 to 20 min
effect on formed ceramide channel ([1]; C2-ceramide channel, sphingosine 4 μg/mL, conductance reached level of unmodified membrane): completely disassembled
release of cytochrome c from isolated mitochondria [2]: ≤ 15%
CMC [3]: more than 30 μg/mL
ability to form channels [4]: produced real channels
permeabilization of the MOM to adenylate kinase after removal of excess compound with BSA ([5]; 2.4 μg/mL for 5 min, then fatty acid depleted BSA, no ceramide added): release of adenylate kinase is evident
effect of preincubation on C16-ceramide permeabilization of the MOM and adenylate kinase release ([5]; 5 min preincubation, C16-ceramide 40 μg/mL, 10 min, low concentration potentiates, higher inhibits): biphasic relationship
sphingosine exposure giving essentially total inhibition of ceramide-dependent adenylate kinase release ([5]; 5 min pretreatment, then C2-ceramide 29 μg/mL for 10 min at room temperature, depends on batch of mitochondria): 0.3 to 0.6 µg/mL
release of adenylate kinase by compound alone ([5]; no ceramide, concentration range up to 6 μg/mL): did not induce the release of adenylate kinase
higher levels that strongly inhibited ceramide channel formation [5, 6]: 5 to 10 µM
low levels that stimulated ceramide induced permeabilization of the mitochondrial outer membrane to proteins [5, 6]: 1 to 2 µM
